US8754073B2, “Substituted piperazino-dihydrothienopyrimidines” (Boehringer Ingelheim International GmbH, priority 2007, dated 2014)

Target: PDE4B (Homo sapiens, UniProt Q07343)
Assay: Scintillation Proximity Assay (SPA) of PDE4B enzyme activity ([H3]-cAMP cleavage)
Type: biochemical
Conditions: test substance 1 μM; one-hour incubation with [H3]-cAMP at 30° C.
Procedure, shortened: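 Percent inhibition at 1 μM compound, measured against an uninhibited reaction. PDE4B hydrolysed tritiated cAMP for one hour at 30 °C, then scintillator beads were added to capture [H3]-5′-AMP. Light events were counted after 45 min bead settling.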

PDE4B, sequence (Q07343 whole entry, species assumed): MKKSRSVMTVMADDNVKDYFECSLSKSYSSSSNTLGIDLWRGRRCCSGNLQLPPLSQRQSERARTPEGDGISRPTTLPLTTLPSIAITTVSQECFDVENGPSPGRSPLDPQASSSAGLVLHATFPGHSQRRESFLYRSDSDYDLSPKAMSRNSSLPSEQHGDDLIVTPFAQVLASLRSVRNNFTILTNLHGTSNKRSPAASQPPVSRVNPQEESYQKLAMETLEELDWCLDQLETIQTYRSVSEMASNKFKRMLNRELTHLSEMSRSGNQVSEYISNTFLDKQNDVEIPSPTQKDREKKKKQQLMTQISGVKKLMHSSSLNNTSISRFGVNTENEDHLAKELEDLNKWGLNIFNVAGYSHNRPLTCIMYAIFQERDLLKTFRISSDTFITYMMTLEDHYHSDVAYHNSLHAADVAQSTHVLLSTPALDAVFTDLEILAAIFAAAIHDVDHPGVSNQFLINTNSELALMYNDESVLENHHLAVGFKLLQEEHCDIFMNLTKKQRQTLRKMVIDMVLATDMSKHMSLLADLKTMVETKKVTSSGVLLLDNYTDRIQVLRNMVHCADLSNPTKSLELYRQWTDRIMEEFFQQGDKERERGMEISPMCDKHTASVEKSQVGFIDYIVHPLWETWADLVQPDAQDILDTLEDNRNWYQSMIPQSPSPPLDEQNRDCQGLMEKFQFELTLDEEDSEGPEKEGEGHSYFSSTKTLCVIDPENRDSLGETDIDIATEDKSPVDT

SMILES	inhibition at 1 µM
Cc1nn(C)c(C)c1CNC(=O)c1cccc(C2CCN(c3nc4c(c(NC5CCOCC5)n3)[S+]([O-])CC4)CC2)c1 (stereo not drawn) [Example 250]	92%
Cc1nn(C)cc1C(C)NC(=O)c1cccc(C2CCN(c3nc4c(c(NC5CCOCC5)n3)[S+]([O-])CC4)CC2)c1 (stereo not drawn) [Example 251]	90%
CN1C[C@@H](Nc2nc(N3CCC(C(=O)N4CCOCC4)(c4ccccc4)CC3)nc3c2[S+]([O-])CC3)CCC1=O (stereo partly drawn) [Example 252, 1-Methyl-5-{2-[4-(Morpholine-4-Carbonyl)-4-Phenyl Piperidin-1-Yl]-5-Oxo-6,7-Dihydro-5H-5λ^4-Thieno[3,2-d]Pyrimidin-4-Ylamino}-Piperidin-2-One]	92%
CN1C[C@@H](Nc2nc(N3CCC(CNS(C)(=O)=O)(c4ccccc4)CC3)nc3c2[S+]([O-])CC3)CCC1=O (stereo partly drawn) [Example 253, N-{1-[4-(1-Methyl-6-Oxo-Piperidin-3-Ylamino)-5-Oxo-6,7-Dihydro-5H-5λ^4-Thieno[3,2-d]Pyrimidin-2-Yl]-4-Phenylpiperidin-4-Ylmethyl}-Methanesulphonamide]	92%
CN1C[C@@H](Nc2nc(N3CCC(O)(c4ccc(Cl)cc4)CC3)nc3c2[S+]([O-])CC3)CCC1=O (stereo partly drawn) [Example 254]	92%
CC(C)(NC(=O)c1cccc(C2CCN(c3nc4c(c(NC5CCOCC5)n3)[S+]([O-])CC4)CC2)c1)c1ccncc1 (stereo not drawn) [Example 255]	93%
CN(C(=O)c1cccc(C2CCN(c3nc4c(c(NC5CCOCC5)n3)[S+]([O-])CC4)CC2)c1)C1CCOCC1 (stereo not drawn) [Example 256]	91%
O=C(c1cccc(C2CCN(c3nc4c(c(NC5CCOCC5)n3)[S+]([O-])CC4)CC2)c1)N(C1CCOCC1)C1CC1 (stereo not drawn) [Example 257]	94%
Cc1cn(C)nc1CN(C)C(=O)c1cccc(C2CCN(c3nc4c(c(NC5CCOCC5)n3)[S+]([O-])CC4)CC2)c1 (stereo not drawn) [Example 258]	93%
Cc1nn(C)cc1CNC(=O)c1cccc(C2CCN(c3nc4c(c(NC5CCOCC5)n3)[S+]([O-])CC4)CC2)c1 (stereo not drawn) [Example 259]	92%
COCC1(c2ccc(Cl)cc2)CCN(c2nc3c(c(N[C@H]4CCC(=O)N(C)C4)n2)[S+]([O-])CC3)CC1 (stereo partly drawn) [Example 260, 5-{2-[4-(4-chlorophenyl)-4-methoxymethylpiperidin-1-yl]-5-oxo-6,7-dihydro-5H-5μ^4-thieno[3,2-d]pyrimidin-4-ylamino}-1-methylpiperidin-2-one]	96%
COC1(c2ccc(Cl)cc2)CCN(c2nc3c(c(N[C@H]4CCC(=O)N(C)C4)n2)[S+]([O-])CC3)CC1 (stereo partly drawn) [Example 261, 5-{2-[4-(4-chlorophenyl)-4-methoxypiperidin-1-yl]-5-oxo-6,7-dihydro-5H-5λ^4-thieno[3,2-d]pyrimidin-4-ylamino}-1-methylpiperidin-2-one]	95%
Cc1nn(C)cc1CNC(=O)c1ccc(C2CCN(c3nc4c(c(NC5CCOCC5)n3)[S+]([O-])CC4)CC2)cc1 (stereo not drawn) [Example 262]	94%
Cc1nn(C)cc1CNC(=O)c1ccc(OC2CCN(c3nc4c(c(NC5CCOCC5)n3)[S+]([O-])CC4)CC2)cc1 (stereo not drawn) [Example 263]	94%
CN1C[C@@H](Nc2nc(N3CCC(Oc4ccncc4)CC3)nc3c2[S+]([O-])CC3)CCC1=O (stereo partly drawn) [Example 264]	94%
CN1C[C@@H](Nc2nc(N3CCC(Oc4ccc(Cl)cc4)CC3)nc3c2[S+]([O-])CC3)CCC1=O (stereo partly drawn) [Example 265]	89%
CC(C)c1ccccc1OC1CCN(c2nc3c(c(N[C@H]4CCC(=O)N(C)C4)n2)[S+]([O-])CC3)CC1 (stereo partly drawn) [Example 266]	95%

SMILES	inhibition at 1 µM
CC(C)c1ccc(OC2CCN(c3nc4c(c(N[C@H]5CCC(=O)N(C)C5)n3)[S+]([O-])CC4)CC2)cc1 (stereo partly drawn) [Example 267]	78%
[O-][S+]1CCc2nc(N3CCC(Oc4ccncc4)CC3)nc(NC3CCOCC3)c21 (stereo not drawn) [Example 268]	80%
CC(C)c1ccc(OC2CCN(c3nc4c(c(NC5CCOCC5)n3)[S+]([O-])CC4)CC2)cc1 (stereo not drawn) [Example 269]	94%
CN1C[C@@H](Nc2nc(N3CCC(CN(C)S(C)(=O)=O)(c4ccccc4)CC3)nc3c2[S+]([O-])CC3)CCC1=O (stereo partly drawn) [Example 270, N-methyl-N-{1-[4-(1-methyl-6-oxo-piperidin-3-ylamino)-5-oxo-6,7-dihydro-5H-5λ^4-thieno[3,2-d]pyrimidin-2-yl]-4-phenylpiperidin-4-ylmethyl}-methanesulphonamide]	95%
[O-][S+]1CCc2nc(N3CCC(Oc4ccc(Cl)cc4)CC3)nc(NC3CCOCC3)c21 (stereo not drawn) [Example 271]	92%
CC(C)c1ccccc1OC1CCN(c2nc3c(c(NC4CCOCC4)n2)[S+]([O-])CC3)CC1 (stereo not drawn) [Example 272]	95%
COC1(c2cc(F)cc(F)c2)CCN(c2nc3c(c(N[C@H]4CCC(=O)N(C)C4)n2)[S+]([O-])CC3)CC1 (stereo partly drawn) [Example 273, 5-{2-[4-(3,5-difluorophenyl)-4-methoxypiperidin-1-yl]-5-oxo-6,7-dihydro-5H-5λ^4-thieno[3,2-d]pyrimidin-4-ylamino}-1-methylpiperidin-2-one]	94%
CC(=O)N(C)CC1(c2ccccc2)CCN(c2nc3c(c(N[C@H]4CCC(=O)N(C)C4)n2)[S+]([O-])CC3)CC1 (stereo partly drawn) [Example 274, N-methyl-N-{1-[4-(1-methyl-6-oxo-piperidin-3-ylamino)-5-oxo-6,7-dihydro-5H-5λ^4-thieno[3,2-d]pyrimidin-2-yl]-4-phenylpiperidin-4-ylmethyl}-acetamide]	94%
Cc1oc(C2CCN(c3nc4c(c(N[C@H]5CCC(=O)N(C)C5)n3)[S+]([O-])CC4)CC2)nc1-c1ccccc1 (stereo partly drawn) [Example 275, 1-methyl-5-{2-[4-(5-methyl-4-phenyloxazol-2-yl)-piperidin-1-yl]-5-oxo-6,7-dihydro-5H-5λ^4-thieno[3,2-d]pyrimidin-4-ylamino}-piperidin-2-one]	95%
Cc1oc(C2CCN(c3nc4c(c(NC5CCOCC5)n3)[S+]([O-])CC4)CC2)nc1-c1ccccc1 (stereo not drawn) [Example 276]	95%
Cc1oc(C2CCN(c3nc4c(c(NC5(CO)CC5)n3)[S+]([O-])CC4)CC2)nc1-c1ccccc1 (stereo not drawn) [Example 277]	96%
CN1C[C@@H](Nc2nc(N3CCC(c4nc(-c5ccccc5)c(-c5ccccc5)o4)CC3)nc3c2[S+]([O-])CC3)CCC1=O (stereo partly drawn) [Example 278, 5-{2-[4-(4,5-diphenyloxazol-2-yl)-piperidin-1-yl]-5-oxo-6,7-dihydro-5H-5λ^4-thieno[3,2-d]pyrimidin-4-ylamino}-1-methylpiperidin-2-one]	95%
[O-][S+]1CCc2nc(N3CCC(c4nc(-c5ccccc5)c(-c5ccccc5)o4)CC3)nc(NC3CCOCC3)c21 (stereo not drawn) [Example 279]	95%
[O-][S+]1CCc2nc(N3CCC(c4nc(-c5ccccc5)c(-c5ccccc5)o4)CC3)nc(NC3(CO)CC3)c21 (stereo not drawn) [Example 280]	95%
[O-][S+]1CCc2nc(N3CCC(CO)(c4ccc(Cl)cc4)CC3)nc(NC3CCOCC3)c21 (stereo not drawn) [Example 281]	87%
Cc1nc(C2CCN(c3nc4c(c(NC5CCOCC5)n3)[S+]([O-])CC4)CC2)oc1-c1ccc(Cl)cc1 (stereo not drawn) [Example 282]	87%
